Measurements: patent US20220257557A1, “PHARMACEUTICAL COMPOSITION FOR PREVENTING OR TREATING NEUROLOGICAL DISEASES” (GLACEUM INC., priority 2019, published 2022)

Columns and labels:
BV2 cells [1] = assay: iNOS and COX-2 expression after LPS (Western blot); format: cell-based; settings: 3 h pretreatment (Table 3 amounts), LPS 1 μg/ml 24 h
Description: (§1) RAW264.7 cells or BV2 cells (5×10^5 cells/well) were dispensed in DMEM containing 10% heat-inactivated FBS, 10 IU/mL penicillin G, 100 μg/mL streptomycin and 2 mM L-glutamine and cultured in a 5% CO2 incubator at a temperature of 37° C.
(§2) The compound of Formula III-3, III-4, V-3, III-1, IV-1, V-1, IV-2, V-2 or II-2 was added to the RAW264.7 cells or BV2 cells, and the toxicities of the compounds were determined by MTT assay.
(§3) The pretreated cells of Experimental Example 4-1 were treated with 1 μg/ml of LPS for 24 hours, and then the expression levels of iNOS and COX-2 were observed through Western blot, and the production of NO and PGE2 was measured.

RAW264.7 cells [2] = assay: iNOS and COX-2 expression after LPS (Western blot); format: cell-based; settings: 3 h pretreatment (Table 3 amounts), LPS 1 μg/ml 24 h
Description: as §1, §2, §3

RAW264.7 cells [3] = assay: Transcription of NF-κB protein (p65, p50) into nucleus after LPS (Western blot); format: cell-based; settings: 3 h pretreatment (Table 3 amounts), LPS 1 μg/ml 1 h
Description: RAW264.7 cells or BV2 cells (5×10^5 cells/well) were dispensed in DMEM containing 10% heat-inactivated FBS, 10 IU/mL penicillin G, 100 μg/mL streptomycin and 2 mM L-glutamine and cultured in a 5% CO2 incubator at a temperature of 37° C. […]
(§4) The pretreated cells of Experimental Example 4-1 were treated with 1 μg/ml of LPS for 1 hour, and then the level of transcription of NF-κB protein into the nucleus of each of p65 and p50 was analyzed through Western blot.

BV2 cells [4] = assay: IL-1β, IL-6 and TNF-α mRNA expression after LPS (RT-PCR); format: cell-based; settings: 3 h pretreatment (Table 3 amounts), LPS 1 μg/ml 6 h
Description: as §1, §2
(§5) The pretreated cells of Experimental Example 4-1 were treated with 1 μg/ml of LPS for 6 hours, and then the mRNA expression level of the cytokine IL-1β, IL-6 or TNF-α produced in the inflammatory response was analyzed using RT-PCR.

RAW264.7 cells [5] = assay: as above; format: cell-based; settings: 3 h pretreatment (Table 3 amounts), LPS 1 μg/ml 6 h
Description: as §1, §2, §5

BV2 cells [6] = assay: Transcription of NF-κB protein (p65, p50) into nucleus after LPS (Western blot); format: cell-based; settings: 3 h pretreatment (Table 3 amounts), LPS 1 μg/ml 1 h
Description: as §1, §2, §4

[7] = target: T1, rePON1 (PON1, paraoxonase 1) (Homo sapiens, UniProt P27169); assay: Prevention of inhibition of PON1 activity by oxidized linolenic acid (TBBL substrate); format: biochemical; settings: for activity at 30 µM: 30 μM compound with rePON1 30 min, then oxidized linolenic acid 2 h, TBBL substrate, normal control 100, negative control 73.64; for extent to which inhibition of rePON1 activity was prevented, compared with glabridin: compound 30 μM vs glabridin 30 μM; for extent to which inhibition of rePON1 activity was prevented, compared with glabridin / inhibition of rePON1 activity by oxidized linolenic acid: result in words; for inhibition of rePON1 activity by oxidized linolenic acid: compound 30 μM
T1 construct: purchased Thermo Corp. RP-75678
T1 sequence (P27169 whole entry): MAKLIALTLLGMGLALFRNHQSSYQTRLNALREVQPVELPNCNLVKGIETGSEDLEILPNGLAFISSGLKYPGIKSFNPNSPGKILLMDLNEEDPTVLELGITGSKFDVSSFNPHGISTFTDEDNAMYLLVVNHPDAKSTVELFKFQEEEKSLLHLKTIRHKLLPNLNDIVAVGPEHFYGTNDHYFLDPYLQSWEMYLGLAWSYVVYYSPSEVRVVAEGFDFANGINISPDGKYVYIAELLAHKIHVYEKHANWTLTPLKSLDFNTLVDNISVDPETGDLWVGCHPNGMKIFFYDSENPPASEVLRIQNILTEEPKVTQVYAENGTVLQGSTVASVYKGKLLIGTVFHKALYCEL
Description: Based on the fact that the activity of PON1 is inhibited when PON1 is treated with oxidized linolenic acid, an experiment was conducted to confirm the prevention of inhibition of PON1 activity. The activity of PON1 was measured using TBBL (5-thiobutyl butyrolactones) as a substrate.
Specifically, after 9.6 μl of 50 mM Tris-HCl containing 1 mM CaCl2 was added to each of […] Eppendorf tubes, 0.2 μl of each of the compounds of Formulas III-1, IV-1, V-1, IV-2, V-2, II-1, IV-3, V-3, III-2, IV-4, V-4, II-2 and III-3 and glabridine was added to each tube so that the concentration thereof was 30 μM. 0.2 μl of rePON1 (RP-75678, Thermo Corp.) was added to each of the 12 tubes and mixed. Thereafter, each of the mixtures was allowed to react at room temperature for 30 minutes, and 0.5 μl of 1 mM oxidized linolenic acid (OX-LA) dissolved in DMSO was added thereto in order to inhibit rePON1 activity, followed by reaction at room temperature for 2 hours, thus preparing solutions (I).
25 μl of 0.5 mM DTNB dissolved in 50 mM Tris-HCl containing 1 mM CaCl2 was dispensed into each well of a 384-well plate, and then 10 μl of each of the solutions (I) was dispensed into each well, and 20 μl of 2 mM TBBL dissolved in 50 mM Tris-HCl containing 1 mM CaCl2 was added to each well, thus preparing samples. The absorbance of each of the samples at 420 nm was measured using a spectrometer (SpectraMax M2) at 37° C. every 2 minutes for 1 hour.
In addition, a negative control was prepared in the same manner as the above-described method, except that, for the preparation of a solution, 0.2 μl of DMSO was added instead of the compounds of Formulas III-1, IV-1, V-1, IV-2, V-2, II-1, IV-3, V-3, III-2, IV-4, V-4, II-2 and III-3 and glabridin. Furthermore, a normal control was prepared in the same manner as the above-described method, except that, for the preparation of a solution, 0.2 μl of DMSO was added instead of the above-described compounds and glabridin and that oxidized linolenic acid was not added. The absorbance of each of the negative control and the normal control was measured.
Using SoftMax Pro software, the activity of PON1 was calculated from the absorbance using the following Equation 1, and the results are shown in Table 1 below.
Activity=(absorbancesample−absorbanceblank)/(absorbancePON1−absorbanceblank)*100 [Equation 1]

BV2 cells [8] = assay: NO and PGE2 production after LPS; format: cell-based; settings: 3 h pretreatment (Table 3 amounts), LPS 1 μg/ml 24 h
Description: as §1, §2, §3

RAW264.7 cells [9] = assay: NO and PGE2 production after LPS; format: cell-based; settings: 3 h pretreatment (Table 3 amounts), LPS 1 μg/ml 24 h
Description: as §1, §2, §3

CCCc1ccc([C@H]2COc3c(ccc4c3CCC(C)(C)O4)C2)c(O)c1 [Formula V-3, (S)-2-(8,8-dimethyl-2,3,4,8,9,10-hexahydropyrano[2,3-f]chromen-3-yl)-5-propylphenol]
95.1%: activity at 30 µM [7]
concentration-dependently decreased: expression level of COX-2 (BV2 cells [1]) | expression level of iNOS (BV2 cells [1]) | expression level of COX-2 (RAW264.7 cells [2]) | expression level of iNOS (RAW264.7 cells [2]) | level of transcription of NF-κB protein into the nucleus, p50 (RAW264.7 cells [3]) | level of transcription of NF-κB protein into the nucleus, p65 (RAW264.7 cells [3]) | mRNA expression level of IL-1β (BV2 cells [4]) | mRNA expression level of IL-6 (BV2 cells [4]) | mRNA expression level of TNF-α (BV2 cells [4]) | mRNA expression level of IL-1β (RAW264.7 cells [5]) | mRNA expression level of IL-6 (RAW264.7 cells [5]) | mRNA expression level of TNF-α (RAW264.7 cells [5]) | level of transcription of NF-κB protein into the nucleus, p50 (BV2 cells [6]) | level of transcription of NF-κB protein into the nucleus, p65 (BV2 cells [6]) | production of NO (BV2 cells [8]) | production of PGE2 (BV2 cells [8]) | production of NO (RAW264.7 cells [9]) | production of PGE2 (RAW264.7 cells [9])
prevented: inhibition of rePON1 activity by oxidized linolenic acid [7]
greater: extent to which inhibition of rePON1 activity was prevented, compared with glabridin [7]

CCCOc1ccc([C@H]2COc3c(ccc4c3CCC(C)(C)O4)C2)c(O)c1 [Formula V-2, (S)-2-(8,8-dimethyl-2,3,4,8,9,10-hexahydropyrano[2,3-f]chromen-3-yl)-5-propoxyphenol]
concentration-dependently decreased: expression level of COX-2 (BV2 cells [1]) | expression level of iNOS (BV2 cells [1]) | expression level of COX-2 (RAW264.7 cells [2]) | expression level of iNOS (RAW264.7 cells [2]) | level of transcription of NF-κB protein into the nucleus, p50 (RAW264.7 cells [3]) | level of transcription of NF-κB protein into the nucleus, p65 (RAW264.7 cells [3]) | mRNA expression level of IL-1β (BV2 cells [4]) | mRNA expression level of IL-6 (BV2 cells [4]) | mRNA expression level of TNF-α (BV2 cells [4]) | mRNA expression level of IL-1β (RAW264.7 cells [5]) | mRNA expression level of IL-6 (RAW264.7 cells [5]) | mRNA expression level of TNF-α (RAW264.7 cells [5]) | level of transcription of NF-κB protein into the nucleus, p50 (BV2 cells [6]) | level of transcription of NF-κB protein into the nucleus, p65 (BV2 cells [6]) | production of NO (BV2 cells [8]) | production of PGE2 (BV2 cells [8]) | production of NO (RAW264.7 cells [9]) | production of PGE2 (RAW264.7 cells [9])
89.4%: activity at 30 µM [7]
greater: extent to which inhibition of rePON1 activity was prevented, compared with glabridin [7]
prevented: inhibition of rePON1 activity by oxidized linolenic acid [7]

CCCCOc1ccc([C@@H]2COc3c(ccc4c3CCC(C)(C)O4)C2)c(O)c1 [Formula IV-4, (R)-2-(8,8-dimethyl-2,3,4,8,9,10-hexahydropyrano[2,3-f]chromen-3-yl)-5-butoxyphenol]
prevented: inhibition of rePON1 activity by oxidized linolenic acid [7]
94.1%: activity at 30 µM [7]
greater: extent to which inhibition of rePON1 activity was prevented, compared with glabridin [7]

CCCc1ccc([C@@H]2COc3c(ccc4c3CCC(C)(C)O4)C2)c(O)c1 [Formula IV-3, (R)-2-(8,8-dimethyl-2,3,4,8,9,10-hexahydropyrano[2,3-f]chromen-3-yl)-5-propylphenol]
90.6%: activity at 30 µM [7]
greater: extent to which inhibition of rePON1 activity was prevented, compared with glabridin [7]
prevented: inhibition of rePON1 activity by oxidized linolenic acid [7]

CCCCOc1ccc([C@H]2COc3c(ccc4c3CCC(C)(C)O4)C2)c(O)c1 [Formula V-4, (S)-2-(8,8-dimethyl-2,3,4,8,9,10-hexahydropyrano[2,3-f]chromen-3-yl)-5-butoxyphenol]
94.9%: activity at 30 µM [7]
prevented: inhibition of rePON1 activity by oxidized linolenic acid [7]
greater: extent to which inhibition of rePON1 activity was prevented, compared with glabridin [7]

CCCc1ccc(C2COc3c(ccc4c3CCC(C)(C)O4)C2)c(O)c1 (stereo not drawn) [Formula III-4, 2-(8,8-dimethyl-2,3,4,8,9,10-hexahydropyrano[2,3-f]chromen-3-yl)-5-propylphenol]
concentration-dependently decreased: expression level of COX-2 (BV2 cells [1]) | expression level of iNOS (BV2 cells [1]) | expression level of COX-2 (RAW264.7 cells [2]) | expression level of iNOS (RAW264.7 cells [2]) | level of transcription of NF-κB protein into the nucleus, p50 (RAW264.7 cells [3]) | level of transcription of NF-κB protein into the nucleus, p65 (RAW264.7 cells [3]) | mRNA expression level of IL-1β (BV2 cells [4]) | mRNA expression level of IL-6 (BV2 cells [4]) | mRNA expression level of TNF-α (BV2 cells [4]) | mRNA expression level of IL-1β (RAW264.7 cells [5]) | mRNA expression level of IL-6 (RAW264.7 cells [5]) | mRNA expression level of TNF-α (RAW264.7 cells [5]) | level of transcription of NF-κB protein into the nucleus, p50 (BV2 cells [6]) | level of transcription of NF-κB protein into the nucleus, p65 (BV2 cells [6]) | production of NO (BV2 cells [8]) | production of PGE2 (BV2 cells [8]) | production of NO (RAW264.7 cells [9]) | production of PGE2 (RAW264.7 cells [9])

CCOc1cc(O)ccc1C1COc2c(ccc3c2CCC(C)(C)O3)C1 (stereo not drawn) [Formula III-2, 4-(8,8-dimethyl-2,3,4,8,9,10-hexahydropyrano[2,3-f]chromen-3-yl)-3-ethoxyphenol]
greater: extent to which inhibition of rePON1 activity was prevented, compared with glabridin [7]
prevented: inhibition of rePON1 activity by oxidized linolenic acid [7]
83.8%: activity at 30 µM [7]

CC1(C)C=Cc2c(ccc3c2OCC(c2ccc(O)cc2O)=C3)O1 [Formula II-1, 4-(8,8-dimethyl-2,8-dihydropyrano[2,3-f]chromen-3-yl)benzene-1,3-diol]
prevented: inhibition of rePON1 activity by oxidized linolenic acid [7]
85.9%: activity at 30 µM [7]
greater: extent to which inhibition of rePON1 activity was prevented, compared with glabridin [7]
